Measured values from patent publication US10799508B2, “Methods for treating cancer using HSP90 inhibitors” (AI Therapeutics, Inc., priority 2017, dated 2020).

B1: IFN-γ: human interferon-gamma used to induce PD-L1 (protein, UniProt P01579 24-161, looked up)
Interferon gamma: QDPYVKEAENLKKYFNAGHSDVADNGTLFLGILKNWKEESDRKIMQSQIVSFYFKLFKNFKDDQSIQKSVETIKEDMNVKFFNSNKKKRDDFEKLTNYSVTDLNVQRKAIHELIQVMAELSPAAKTGKRKRSQMLFRG

Key:
[1] = test system: IFN-γ-induced PD-L1 expression in SK-MEL-28 cells; experiment: 10-point dose response validation of IFN-γ-induced PD-L1 signal; assay type: cell-based, human; settings: 48 h; for IFN-γ-induced PD-L1 signal: SK-MEL-28, 10-point dose response 9.8-5000 nM, FIG. 1A-D; for concentration required to inhibit IFN-γ-induced PD-L1 expression compared with concentration required to affect cell proliferation: SK-MEL-28, IFN-γ 50 ng/ml, FIG. 2A-E
Method: FIG. 1A-D. Validation dose response curves of HSP90 inhibitors tested in the original screen. A) CNF2024; B) PF04928473; C) tanespimycin; D) HSP-990. SK-MEL-28 cells treated with IFN-γ and with the indicated HSP90 inhibitor at different concentrations. Cells were assayed for cell viability (square, % viability on left axis) and PD-L1 expression (circle, Z-score right axis) at 48 h after treatment of IFN-γ and/or HSP90 inhibitors. Quadruplicate wells were used for determination of cell viability and PD-L1 expression. Average values were plotted. […] Lysates were probed with anti PD-L1 antibody.
(§1) FIG. 2A-E. Dose response curves of 5 additional HSP90 inhibitors. A) STA-9090, B) CUDC-305, C) MPC-3100, D) XL-888 and E) TAS-116. SK-MEL-28 cells treated with IFN-γ (50 ng/ml) and with the indicated HSP90 inhibitor at different concentrations. Cells were assayed for cell viability (square, % viability on left axis) and PD-L1 expression (circle, Z-score right axis) at 48 h after treatment of IFN-γ and/or HSP inhibitors. Quadruplicate wells were used for determination of cell viability and PD-L1 expression. Average values were plotted.
After assessment for viability, plates were then prepared for immunostaining. Briefly, 16% paraformaldehyde (Electron Microscopy Sciences) was added to each well to a final concentration of 4%, for 10 minutes at room temperature. Following this time, the fix was aspirated and cells were washed 3 times with PBS. Cells were blocked using blocking solution (1% bovine serum albumin in PBS) for 30 minutes. After this time, the blocking reagent was aspirated and immunostaining reagent added. The immunostaining reagent consisted of a biotin conjugated-PD-L1 antibody (eBioscience) diluted in blocking buffer. Plates were sealed and kept at 4 C overnight. The following day, plates were washed 3 times with PBS followed by addition of a streptavidin-luciferase fusion protein (Invivogen) diluted in blocking buffer, for 1 h at room temperature. After this step, the plates were washed 3 times with PBS. After the final wash, PBS was aspirated and 30 uL of QUANTI-Luc™ (Invivogen) was added per well. Plates were immediately read on a plate reader (Victor 3V plate reader, 0.1s) and luciferase activity measured.
The raw PD-L1 intensity (the luciferase readout) corresponding to drug screen plates was normalized to blank plates containing only IFN-γ-treated wells, and the resulting ratio was used for the calculation of Z-scores.
(§2) These 4 HSP90 inhibitors were validated using the same experimental protocol employed above (using the SK-MEL-28 cells +/−IFN-γ in 384 well plates), with the only exception to the original assay design was that each drug was now tested in a 10-point dose response assay where the concentration of drug tested was 9.8-5000 nM (2 fold serial dilution). Cells were seeded and treated in quadruplicate. Viability was assessed after 48 h of treatment of four HSP 90 inhibitors and prior to harvesting the cells for testing PD-L1 signal, as described above.

[2] = test system: IFN-γ-induced PD-L1 expression in SK-MEL-28 cells; experiment: High-content primary screen for small molecules that reduce IFN-γ induced PD-L1 expression; assay type: cell-based, human; settings: SK-MEL-28, IFN-γ 50 ng/ml, drugs at 40, 480 and 5000 nM, viability >75%
Method: SK-MEL-28 cells (melanoma cell line; […] Cells were expanded in MEM (Corning) containing 10% FBS (Sigma) and 2 mM L-Glutamine. Frozen stocks of cells were prepared for direct use in the high-throughput screening (HTS) assay. Cells were harvested, pelleted and then resuspended in 95% FBS & 5% DMSO at a concentration 1×10^7 cells/ml. One ml aliquots were rate frozen to −80° C. at a rate of 1 degree per minute. These stocks were then transferred to vapor phase liquid nitrogen for long term storage. For screening, frozen cell vials were quickly thawed with continuous agitation in a at 37° C. water bath then re-suspended in the assay media at room temperature and centrifuged at 1,000 rpm for 5 minutes. The resulting pellet was re-suspended in appropriate volume and counted using an automated cell counter and diluted accordingly. Using a manually curated library of approximately 2500 individual drugs (2000 approved drugs, 500 unapproved drugs), drugs from the source plate were transferred to the destination plates (384-well assay plates—Corning #3712) using an ECHO 550 liquid handler (Labcyte). SK-MEL-28 cells (1750 cells per well in 30 μL of media), treated with IFN-g (50 ng/ml final) were added to these pre-formatted plates using a Multidrop™ Combi reagent dispenser (Thermofisher). […] Plates were centrifuged at 800 rpm for one minute before being incubated in a 5% CO2 humidified incubator at 37° C. After assessment for viability, plates were then prepared for immunostaining. Briefly, 16% paraformaldehyde (Electron Microscopy Sciences) was added to each well to a final concentration of 4%, for 10 minutes at room temperature. Following this time, the fix was aspirated and cells were washed 3 times with PBS. […] After this time, the blocking reagent was aspirated and immunostaining reagent added. […] Plates were sealed and kept at 4 C overnight. […] After this step, the plates were washed 3 times with PBS. After the final wash, PBS was aspirated and 30 uL of QUANTI-Luc™ (Invivogen) was added per well.

[3] = alamarBlue cell viability; assay type: cell-based; settings: human, SK-MEL-28 cells, SK-MEL-28, highest concentration tested (1000 nM), IFN-γ 50 ng/ml
Method: as §1
44 h later, cell viability was determined using alamarBlue™ cell viability reagent (Thermofisher), according to the manufacturers protocol. Briefly, 3 μL of alamarBlue™ reagent was added to each well and plates were incubated for a further 4 h. The plates were read on a Victor ^3V plate reader (Perkin Elmer). Viability for each drug was expressed as a percentage by comparing drug-treated cells and untreated control cells (Set to 100%).
as §2

[4] = test system: MV-4-11, MOLM-16, TUR, U937, KMS-28, OCI-LY-19 and Z138 cell lines; experiment: Synergy of MPC-0767 and venetoclax versus basal BCL-2 abundance; assay type: cell-based, human; settings: 72 hours, CellTiter-Glo
Method: FIG. 12: Cell lines representing acute myeloid leukemia, multiple myeloma, diffuse large B cell lymphoma and mantle cell lymphoma were assayed for basal abundance of BCL-2 (Y axis) and a high/low threshold is shown by dashed line. Cell line sensitivity to venetoclax after 72 hour treatment as assessed by CellTiter-Glo (X axis) is denoted by EC50 values shown in parentheses. Following drug combination treatment of MPC-0767 and venetoclax, determination of synergy is shown by bar graphs in black (synergy observed) or grey (no synergy observed).
After 72 hour treatment with the indicated drug combinations, cell viability was assessed using CellTiter-Glo. […] The absolute EC75 for each single agent and drug combination was calculated using the R package DRC (Ritz et al., Dose-Response Analysis Using R. PLoS One. 2015. 10(12):e0146021; R Core Team, A language and environment for statistical computing. R Foundation for Statistical Computing, Vienna, Austria. 2017). […]
To test whether BCL-2 abundance is predictive of the synergy between HSP90 inhibitors and venetoclax observed here, we analyzed BCL-2 abundance in cell lines representing acute myeloid leukemia (MV-4-11, MOLM-16, TUR and U937), multiple myeloma (KMS-28), diffuse large B cell lymphoma (OCI-LY-19) and mantle cell lymphoma (Z138) under basal conditions using flow cytometry. […]

[5] = test system: PD-L1 cell surface expression in AML cell lines (PL-21, TUR, MOLM-14, MV-4-11); experiment: Flow cytometry of IFN-γ-induced PD-L1 cell surface expression in AML cells; assay type: cell-based, human; settings: 24 hours
Method: FIG. 13A-D: MPC-0767 blocks IFN-γ-induced PD-L1 expression in AML cells. A) PL-21, B) TUR, C) MOLM-14, D) MV-4-11 cells treated with MPC-0767 (2 μM), IFN-γ (50 ng/ml) or IFN-γ+MPC-0767 for 24 h before cells were harvested for assessment of PD-L1 cell surface expression.
To ascertain whether MPC-0767 can block IFN-γ-induced PD-L1 expression in AML cells, four AML cell lines harboring WT FLT3 (n=2) or FLT3-ITD (n=2) were treated with human IFN-γ (50 ng/ml) alone, MPC-0767 (2 μM) alone or the combination for 24 hours. Cells were harvested to determine PD-L1 cell surface expression by flow cytometry. Cells were also stained with a viability stain to gate on viable cells and exclude any dead cells. As shown in FIG. 13A-D, all cell lines induced PD-L1 cell surface expression in response to IFN-γ treatment (6-25 fold).

Row | Molecule | IFN-γ-induced PD-L1 signal [1] | hit in the primary screen (reduction of IFN-γ-induced PD-L1 expression) [2] | viability at 48 h, 1 µM [3] | concentration required to inhibit IFN-γ-induced PD-L1 expression compared with concentration required to affect cell proliferation [1] | further results
1 | COc1c(C)cnc(Cn2cnc3c(Cl)nc(N)nc32)c1C [CNF-2024] | blocked | identified as hits |  |  | 
2 | CN(C)c1cc2c(cc1Sc1nc3c(N)nccc3n1CCNCC(C)(C)C)OCO2 [CUDC-305] |  |  | > 80% | far lower | 
3 | COc1cccc(-c2cc(F)ccc2[C@H]2Cc3nc(N)nc(C)c3C(=O)N2)n1 [HSP-990] | blocked | identified as hits |  |  | 
4 | C[C@H](N)C(=O)O[C@@H](C)C(=O)N1CCC(CCn2c(Sc3cc4c(cc3Br)OCO4)nc3c(N)ncnc32)CC1 [MPC-0767] |  |  |  |  | synergy with venetoclax ([4]; cell lines with high BCL-2 levels): observed in 4 out of 4 cell lines; synergy with venetoclax ([4]; three cell lines with low BCL-2 levels): no synergy was observed; basal PD-L1 cell surface expression ([5]; MPC-0767 2 μM alone, four AML cell lines): did not significantly reduce; reduction of IFN-γ-induced PD-L1 cell surface expression ([5]; MPC-0767 2 μM with IFN-γ 50 ng/ml, range over four AML cell lines): 43-83%
5 | CC1(C)CC(=O)c2c(C(F)(F)F)nn(-c3ccc(C(N)=O)c(N[C@H]4CC[C@H](O)CC4)c3)c2C1 [PF0498473] | blocked | identified as hits |  |  | 
6 | CC(C)c1cc(-c2n[nH]c(=O)n2-c2ccc3c(ccn3C)c2)c(O)cc1O [STA-9090] |  |  | > 80% | far lower | 
7 | CCc1cc(C(N)=O)ccc1-n1nc(C(C)C)c2c(-n3cnc(-c4cnn(C)c4)c3)ccnc21 [TAS-116] |  |  | > 80% | far lower | 
8 | CC[C@@H](C)Nc1cc(C(=O)NC2CC3CCC(C2)N3c2ccc(C(=O)C3CC3)cn2)c(C)cc1C(N)=O (stereo partly drawn) [XL-888] |  |  | > 80% | far lower | 
9 | C=CCNC1=C2C[C@@H](C)C[C@H](OC)[C@H](O)[C@@H](C)/C=C(\C)[C@H](OC(N)=O)[C@@H](OC)/C=C\C=C(/C)C(=O)NC(=CC1=O)C2=O [tanespimycin] | blocked | identified as hits |  |  | 
10 | B1 |  |  |  |  | induction of PD-L1 cell surface expression ([5]; human IFN-γ 50 ng/ml alone, range over four AML cell lines): 6-25 fold
